Experimental findings from publication PMC5404560, “Towards Selective Mycobacterial ClpP1P2 Inhibitors with Reduced Activity against the Human Proteasome” (Antimicrobial Agents and Chemotherapy, 2017) are described below.

SMILES strings stand for the structures. Values after ≈ are worked out from the molar mass of the structure shown. Values joined by “and” are separate entries in the source; they are usually repeats but may differ in a detail not shown here. Identical values can stand only once. Residues, ends and D or L forms follow the SMILES beside them.

The test system of one experiment is M. smegmatis ΔprcAB. It is filed as cell-based. To be noted: 24 h exposure, OD600; concentration inhibiting 50% of growth.
In another experiment the target is HepG2 proteasome (Homo sapiens, UniProt P20618+P28074). Nature of the experiment: Cell-based proteasome CT-like peptidase inhibition assay (Proteasome-Glo).
The target in a further experiment is ClpP1P2 (Mycolicibacterium smegmatis, UniProt A0R197+A0R198). Nature of the experiment: ClpP1P2 inhibition whole-cell RFP-SsrA reporter assay. As to conditions: M. smegmatis ΔprcAB IC50 (μM) for ClpP1P2, whole-cell RFP-SsrA reporter, 3 h incubation.
The next experiment deals with M. tuberculosis H37Rv. Nature of the experiment: microbe, parasite or virus in culture. Type of experiment: cell-based. As to conditions: Mycobacterium tuberculosis, H37RV, 120 h, 5 days.
The next experiment concerns the target MMP 3 (Homo sapiens, UniProt P08254). Briefly: Protease panel: MMP 3. It is filed as biochemical. As to conditions: supplement panel table, test and control compound. Here is the method:
(§1) Protease panel testing was carried out by Reaction Biology Corporation.

Another experiment has as its target TACE (Homo sapiens, UniProt P78536). Nature of the experiment: biochemical.
For another experiment, the target named is MMP 14 (Homo sapiens, UniProt P50281). Nature of the experiment: Protease panel: MMP 14. To be noted: supplement panel table, test and control compound. It is filed as biochemical. Here is the method:
as §1

For the next experiment, the target named is T1, ADAM10 (Homo sapiens, UniProt O14672).
T1 construct: Reaction Biology Corporation (contract testing)
Briefly: Protease panel: ADAM10. It is filed as biochemical. As to conditions: supplement panel table, test and control compound.

Another experiment addresses T2, MMP 12 (Homo sapiens, UniProt P39900).
T2 construct: Reaction Biology Corporation (contract testing)
Nature of the experiment: Protease panel: MMP 12. As to conditions: supplement panel table, test and control compound. Type of experiment: biochemical. Here is the method: as §1

The target of another experiment is MMP 13 (Homo sapiens, UniProt P45452). Briefly: biochemical.
The next experiment concerns the target MMP 7 (Homo sapiens, UniProt P09237). Briefly: Protease panel: MMP 7. Type of experiment: biochemical. As to conditions: supplement panel table, test and control compound. Here is the method: as §1
In the next experiment the target is Kallikrein 1 (Homo sapiens, UniProt P06870). Nature of the experiment: Protease panel: Kallikrein 1. It is filed as biochemical. As to conditions: supplement panel table, test and control compound.
Another experiment concerns the target T3, Cathepsin G (Homo sapiens, UniProt P08311).
T3 construct: Reaction Biology Corporation (contract testing)
Nature of the experiment: Protease panel: Cathepsin G. To be noted: supplement panel table, test and control compound. Type of experiment: biochemical.

For the next experiment, the target named is Chymase (Homo sapiens, UniProt P23946). Nature of the experiment: Protease panel: Chymase. It is filed as biochemical. To be noted: supplement panel table, test and control compound.
The next experiment has as its target T4, Caspase 5 (Homo sapiens, UniProt P51878).
T4 construct: Reaction Biology Corporation (contract testing)
Briefly: Protease panel: Caspase 5. It is filed as biochemical. To be noted: supplement panel table, test and control compound.

A further experiment deals with T5, Caspase 11 (Mus musculus, UniProt P70343).
T5 construct: Reaction Biology Corporation (contract testing)
Briefly: Protease panel: Caspase 11. Type of experiment: biochemical. To be noted: supplement panel table, test and control compound.

A further experiment concerns the target T6, Caspase 4 (Homo sapiens, UniProt P49662).
T6 construct: Reaction Biology Corporation (contract testing)
Nature of the experiment: Protease panel: Caspase 4. It is filed as biochemical. To be noted: supplement panel table, test and control compound.

The next experiment has as its target T7, Caspase 10 (Homo sapiens, UniProt Q92851).
T7 construct: Reaction Biology Corporation (contract testing)
Nature of the experiment: Protease panel: Caspase 10. To be noted: supplement panel table, test and control compound. Type of experiment: biochemical.

The target in another experiment is T8, Caspase 1 (Homo sapiens, UniProt P29466).
T8 construct: Reaction Biology Corporation (contract testing)
Briefly: Protease panel: Caspase 1. Type of experiment: biochemical. As to conditions: supplement panel table, test and control compound.

The next experiment has as its target T9, Caspase 2 (Homo sapiens, UniProt P42575).
T9 construct: Reaction Biology Corporation (contract testing)
Nature of the experiment: Protease panel: Caspase 2. It is filed as biochemical. As to conditions: supplement panel table, test and control compound.

Another experiment addresses T10, Caspase 9 (Homo sapiens, UniProt P55211).
T10 construct: Reaction Biology Corporation (contract testing)
Nature of the experiment: Protease panel: Caspase 9. It is filed as biochemical. As to conditions: supplement panel table, test and control compound.

A further experiment deals with T11, Caspase 8 (Homo sapiens, UniProt Q14790).
T11 construct: Reaction Biology Corporation (contract testing)
Nature of the experiment: Protease panel: Caspase 8. It is filed as biochemical. To be noted: supplement panel table, test and control compound.

ClpP1P2, sequence (A0R198 4-203): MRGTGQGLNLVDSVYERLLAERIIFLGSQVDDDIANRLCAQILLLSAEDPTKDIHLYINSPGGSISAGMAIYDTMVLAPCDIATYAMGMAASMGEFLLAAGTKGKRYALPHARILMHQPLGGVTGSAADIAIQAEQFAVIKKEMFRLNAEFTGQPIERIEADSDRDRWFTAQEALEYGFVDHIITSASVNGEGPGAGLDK
ClpP1P2, sequence (A0R197 17-218): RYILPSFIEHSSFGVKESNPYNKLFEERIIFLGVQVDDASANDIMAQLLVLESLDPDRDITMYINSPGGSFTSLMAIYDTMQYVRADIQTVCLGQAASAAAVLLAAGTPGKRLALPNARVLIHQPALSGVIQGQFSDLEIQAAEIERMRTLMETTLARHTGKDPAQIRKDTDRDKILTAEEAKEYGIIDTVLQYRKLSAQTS
MMP 3, sequence (P08254 100-477, species assumed): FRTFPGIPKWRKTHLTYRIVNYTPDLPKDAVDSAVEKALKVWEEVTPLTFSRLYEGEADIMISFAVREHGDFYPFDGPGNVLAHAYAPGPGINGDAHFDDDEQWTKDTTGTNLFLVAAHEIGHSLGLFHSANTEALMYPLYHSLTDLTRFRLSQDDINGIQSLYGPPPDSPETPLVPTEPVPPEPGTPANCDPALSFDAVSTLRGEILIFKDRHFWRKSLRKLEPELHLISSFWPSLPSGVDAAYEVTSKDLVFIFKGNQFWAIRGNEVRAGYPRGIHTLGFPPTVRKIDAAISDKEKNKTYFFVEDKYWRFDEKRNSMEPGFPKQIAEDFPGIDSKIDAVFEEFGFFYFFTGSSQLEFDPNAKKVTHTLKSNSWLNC
T11 sequence (Q14790 217-479, species assumed): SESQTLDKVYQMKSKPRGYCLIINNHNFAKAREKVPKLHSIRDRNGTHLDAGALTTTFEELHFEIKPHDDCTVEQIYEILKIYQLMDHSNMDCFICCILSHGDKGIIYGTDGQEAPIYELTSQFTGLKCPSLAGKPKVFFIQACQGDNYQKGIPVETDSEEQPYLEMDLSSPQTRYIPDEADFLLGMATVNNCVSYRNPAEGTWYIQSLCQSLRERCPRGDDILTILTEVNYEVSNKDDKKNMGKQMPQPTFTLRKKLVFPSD
T8 sequence (P29466 120-404, species assumed): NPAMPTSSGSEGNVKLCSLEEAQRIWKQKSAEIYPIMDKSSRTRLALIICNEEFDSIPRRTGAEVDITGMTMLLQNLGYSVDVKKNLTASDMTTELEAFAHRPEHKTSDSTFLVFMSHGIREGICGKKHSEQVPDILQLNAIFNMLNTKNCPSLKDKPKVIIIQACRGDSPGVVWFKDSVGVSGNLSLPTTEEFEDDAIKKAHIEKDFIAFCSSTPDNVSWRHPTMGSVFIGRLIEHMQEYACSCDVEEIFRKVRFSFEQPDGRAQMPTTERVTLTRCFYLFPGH
T5 sequence (P70343 81-373): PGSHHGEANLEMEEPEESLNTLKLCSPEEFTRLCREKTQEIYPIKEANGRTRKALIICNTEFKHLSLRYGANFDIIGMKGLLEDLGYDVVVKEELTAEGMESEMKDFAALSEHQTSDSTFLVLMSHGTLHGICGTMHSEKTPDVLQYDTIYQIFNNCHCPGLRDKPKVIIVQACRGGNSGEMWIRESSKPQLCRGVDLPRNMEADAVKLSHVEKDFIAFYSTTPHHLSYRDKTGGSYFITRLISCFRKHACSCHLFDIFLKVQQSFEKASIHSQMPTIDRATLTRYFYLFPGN
T7 sequence (Q92851 220-521, species assumed): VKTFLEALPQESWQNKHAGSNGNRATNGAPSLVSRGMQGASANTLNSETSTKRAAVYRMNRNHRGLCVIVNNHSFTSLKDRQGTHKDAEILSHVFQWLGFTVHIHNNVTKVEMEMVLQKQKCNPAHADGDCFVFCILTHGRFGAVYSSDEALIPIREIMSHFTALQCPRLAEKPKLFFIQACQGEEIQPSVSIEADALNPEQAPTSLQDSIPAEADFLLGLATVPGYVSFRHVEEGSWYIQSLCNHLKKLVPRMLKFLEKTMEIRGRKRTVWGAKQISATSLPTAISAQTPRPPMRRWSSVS
Chymase, sequence (P23946 22-247, species assumed): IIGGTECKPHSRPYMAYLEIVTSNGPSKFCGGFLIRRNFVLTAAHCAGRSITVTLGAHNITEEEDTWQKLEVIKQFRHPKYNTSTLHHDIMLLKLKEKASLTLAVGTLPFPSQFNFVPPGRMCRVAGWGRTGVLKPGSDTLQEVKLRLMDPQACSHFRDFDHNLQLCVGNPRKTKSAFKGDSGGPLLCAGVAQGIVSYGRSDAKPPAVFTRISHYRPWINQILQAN
Kallikrein 1, sequence (P06870 25-262, species assumed): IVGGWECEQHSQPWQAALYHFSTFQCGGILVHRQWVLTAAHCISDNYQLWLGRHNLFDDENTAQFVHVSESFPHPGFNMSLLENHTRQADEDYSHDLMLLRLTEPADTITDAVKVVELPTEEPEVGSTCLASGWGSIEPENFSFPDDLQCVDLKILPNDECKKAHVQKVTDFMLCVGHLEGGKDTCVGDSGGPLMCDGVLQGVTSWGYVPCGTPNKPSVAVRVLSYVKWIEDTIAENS
T10 sequence (P55211 whole entry, species assumed): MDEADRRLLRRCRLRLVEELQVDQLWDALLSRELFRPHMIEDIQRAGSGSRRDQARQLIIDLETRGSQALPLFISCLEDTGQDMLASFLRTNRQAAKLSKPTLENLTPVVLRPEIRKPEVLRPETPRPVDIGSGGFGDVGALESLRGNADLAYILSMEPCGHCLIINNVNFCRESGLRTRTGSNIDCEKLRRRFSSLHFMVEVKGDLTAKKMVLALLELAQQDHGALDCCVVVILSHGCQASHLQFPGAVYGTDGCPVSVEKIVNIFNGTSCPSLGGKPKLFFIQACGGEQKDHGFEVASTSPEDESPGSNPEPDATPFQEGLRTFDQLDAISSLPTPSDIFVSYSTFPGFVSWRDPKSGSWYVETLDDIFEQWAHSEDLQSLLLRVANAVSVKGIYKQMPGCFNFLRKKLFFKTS
T2 sequence (P39900 106-470, species assumed): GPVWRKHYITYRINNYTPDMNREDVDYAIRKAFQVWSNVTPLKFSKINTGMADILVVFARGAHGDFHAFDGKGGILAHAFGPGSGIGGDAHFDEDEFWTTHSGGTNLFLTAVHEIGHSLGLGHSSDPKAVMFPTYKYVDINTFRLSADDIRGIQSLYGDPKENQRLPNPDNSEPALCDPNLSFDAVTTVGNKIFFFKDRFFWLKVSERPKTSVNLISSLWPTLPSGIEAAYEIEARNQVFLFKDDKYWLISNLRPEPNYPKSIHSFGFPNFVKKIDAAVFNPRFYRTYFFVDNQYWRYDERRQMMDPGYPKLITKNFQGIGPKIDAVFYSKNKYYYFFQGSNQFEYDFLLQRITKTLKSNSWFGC
TACE, sequence (P78536 215-824): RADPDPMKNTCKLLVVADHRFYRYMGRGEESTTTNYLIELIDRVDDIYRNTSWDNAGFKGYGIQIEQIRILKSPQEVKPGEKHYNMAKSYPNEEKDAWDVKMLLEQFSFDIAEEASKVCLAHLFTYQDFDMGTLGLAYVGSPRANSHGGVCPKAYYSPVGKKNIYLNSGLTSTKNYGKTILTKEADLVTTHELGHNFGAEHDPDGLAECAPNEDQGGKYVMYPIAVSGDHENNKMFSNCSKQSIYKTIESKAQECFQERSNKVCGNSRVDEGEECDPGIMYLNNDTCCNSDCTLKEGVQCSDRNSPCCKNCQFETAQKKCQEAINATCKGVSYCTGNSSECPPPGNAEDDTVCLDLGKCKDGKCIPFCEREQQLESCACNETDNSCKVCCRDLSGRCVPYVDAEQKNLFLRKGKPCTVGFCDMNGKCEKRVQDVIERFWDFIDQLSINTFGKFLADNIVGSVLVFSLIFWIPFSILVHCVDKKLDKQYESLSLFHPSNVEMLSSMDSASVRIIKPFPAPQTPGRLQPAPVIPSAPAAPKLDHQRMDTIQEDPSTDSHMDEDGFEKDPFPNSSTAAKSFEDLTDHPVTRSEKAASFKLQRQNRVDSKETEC
MMP 7, sequence (P09237 95-267, species assumed): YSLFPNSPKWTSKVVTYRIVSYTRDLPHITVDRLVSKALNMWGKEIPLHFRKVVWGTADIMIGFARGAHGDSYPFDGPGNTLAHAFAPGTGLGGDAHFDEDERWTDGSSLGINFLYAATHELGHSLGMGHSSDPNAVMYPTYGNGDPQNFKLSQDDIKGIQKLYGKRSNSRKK
T3 sequence (P08311 21-255, species assumed): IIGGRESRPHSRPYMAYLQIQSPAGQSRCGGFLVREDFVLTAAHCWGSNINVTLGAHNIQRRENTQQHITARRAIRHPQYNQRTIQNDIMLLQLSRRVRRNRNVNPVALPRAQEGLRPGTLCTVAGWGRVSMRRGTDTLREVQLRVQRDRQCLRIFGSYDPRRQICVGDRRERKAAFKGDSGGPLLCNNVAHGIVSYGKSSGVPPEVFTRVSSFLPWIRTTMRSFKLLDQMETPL
T6 sequence (P49662 81-377, species assumed): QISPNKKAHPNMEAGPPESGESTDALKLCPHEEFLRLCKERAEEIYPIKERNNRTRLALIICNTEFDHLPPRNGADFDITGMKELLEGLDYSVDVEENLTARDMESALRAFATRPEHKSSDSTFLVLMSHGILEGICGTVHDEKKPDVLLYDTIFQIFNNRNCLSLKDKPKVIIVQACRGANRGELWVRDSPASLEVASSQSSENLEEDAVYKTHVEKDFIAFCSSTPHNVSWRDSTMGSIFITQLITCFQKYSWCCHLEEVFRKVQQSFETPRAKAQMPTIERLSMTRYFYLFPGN
T4 sequence (P51878 137-434, species assumed): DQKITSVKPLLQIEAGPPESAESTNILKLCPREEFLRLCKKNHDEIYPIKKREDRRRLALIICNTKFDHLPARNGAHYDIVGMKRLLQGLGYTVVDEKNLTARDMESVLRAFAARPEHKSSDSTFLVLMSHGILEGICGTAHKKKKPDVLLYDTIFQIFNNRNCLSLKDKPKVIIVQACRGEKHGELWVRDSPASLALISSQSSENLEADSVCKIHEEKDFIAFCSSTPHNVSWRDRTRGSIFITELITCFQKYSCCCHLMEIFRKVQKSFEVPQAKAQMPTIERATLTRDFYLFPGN
Procedure for HepG2 proteasome: A cell-based CT-like peptidase assay was performed using the Proteasome-Glo cell-based assay reagent (Promega) according to the manufacturer's guidelines. Briefly, HepG2 cells (10^4 cells/well) were treated with the compounds indicated in the figures for 2 h, followed by incubation with the luminescent substrate for 10 min. Luminescence was detected with a Tecan M200 Pro plate reader.

As for `O=C(N[C@@H](Cc1ccccc1)C(=O)N[C@@H](Cc1ccccc1)B(O)O)c1cnccn1` [Compound 31, ((R)-2-phenyl-1-((S)-3-phenyl-2-(pyrazine-2-carboxamido)propanamido)ethyl)boronic acid], the “M. smegmatis ΔprcAB MIC50” value with M. smegmatis ΔprcAB was 16.5 µM and 16.5 ± 8.5 µM. The IC50 on HepG2 proteasome was 50 ± 10 nM; against ClpP1P2, 7.5 ± 2.6 µM. The MIC50 with M. tuberculosis H37Rv (read-out: MIC50 (μM) against M. tuberculosis H37Rv) came to 6 µM (≈ 2.51 µg/mL). For the same compound, the MIC90 in the experiment with M. tuberculosis H37Rv (read-out: MIC90 (μM) against M. tuberculosis H37Rv) was 20 µM (≈ 8.37 µg/mL).
As to `CNC(=O)[C@H](Cc1c[nH]c2ccccc12)NC(=O)[C@@H](CC(=O)NO)CC(C)C` [GM6001], the 50% inhibitory concentration (IC50) turned out to be 0.0163 µM on MMP 3; 9.1 nM against TACE; 0.00124 µM against MMP 14; 0.0811 µM against ADAM10; 0.00117 µM against MMP 12; 0.535 nM against MMP 13. On MMP 7, this compound came in with an IC50 of 0.00438 µM.
In turn, `CC(=O)N[C@@H](CC(C)C)C(=O)N[C@@H](CC(C)C)C(=O)N[C@H](C=O)CCCNC(=N)N` [Leupeptin, reference compound] returned an IC50 at Kallikrein 1 of 26.7 µM. That is a double-digit micromolar value.
For the compound `O=C(N[C@@H](Cc1ccccc1)C(=O)N[C@@H](CCC1CCCCC1)B(O)O)c1ccccc1` [Compound 48, ((R)-1-((S)-2-benzamido-3-phenylpropanamido)-3-cyclohexylpropyl)boronic acid], the “M. smegmatis ΔprcAB MIC50” value in the experiment with M. smegmatis ΔprcAB is over 200 µM. Further, the IC50 at HepG2 proteasome was over 500 nM; against ClpP1P2 it was over 200 µM.
In the case of `CC(C)C[C@H](NC(=O)[C@H](Cc1ccccc1)NC(=O)c1ccccn1)B(O)O` [Compound 37, ((R)-3-methyl-1-((S)-3-phenyl-2-(picolinamido)propanamido)butyl)boronic acid], in the experiment with M. smegmatis ΔprcAB, the “M. smegmatis ΔprcAB MIC50” value came out at 15 ± 0 µM. Moreover, the IC50 on HepG2 proteasome is 6 ± 1 nM; on ClpP1P2, 17 ± 5.7 µM.
Regarding `CC(C)C[C@H](NC(=O)[C@@H](NC(=O)N[C@@H](Cc1ccccc1)C(=O)O)[C@@H]1CCN=C(N)N1)C(=O)N[C@H](C=O)Cc1ccccc1` [Chymostatin, reference compound], the IC50 came out at 3.83 µM against Cathepsin G and 0.0915 µM against Chymase.
With `CC[C@H](C)[C@H](NC(C)=O)C(=O)N[C@@H](CCC(=O)O)C(=O)N[C@H](C(=O)N[C@H](C=O)CC(=O)O)[C@@H](C)O` [IETD-CHO] (Ac-IETD-aldehyde), the IC50 on Caspase 5 worked out at 0.0213 µM; at Caspase 11, 0.68 µM; against Caspase 4, 2.73 µM; against Caspase 10 it was 0.0177 µM; on Caspase 1, 0.0545 µM; against Caspase 2 it was 0.626 µM. Moreover, the IC50 against Caspase 9 is 0.0553 µM; against Caspase 8, 0.00166 µM.
Turning to `O=C(N[C@@H](Cc1ccccc1)C(=O)N[C@@H](CCc1ccccc1)B(O)O)c1ccccc1F` [Compound 53, ((R)-1-((S)-2-(2-fluorobenzamido)-3-phenylpropanamido)-3-phenylpropyl)boronic acid], the “M. smegmatis ΔprcAB MIC50” value with M. smegmatis ΔprcAB came out at 7 ± 3 µM. Moreover, the IC50 against HepG2 proteasome was 200 nM; against ClpP1P2, 4.5 µM.

As usually defined, the IC50 is the concentration that gives 50% inhibition. High values mean weaker potency in that assay, low ones greater potency in that assay.
